Laboratory results from PubChem BioAssay (NCI).
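How tested: cells in 96-well plates exposed to compound for 48 hours at five concentrations. At the TGI there is no net growth.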 Where a SMILES comes first, the peptide text is derived from it. [ ]: non-standard residue; d: D form. The star is where a group is joined. ξ: configuration not given here. NMeY = CN[C@@H](Cc1ccc(O)cc1)C(=O)O; Cbz = O=C(OCc1ccccc1)*; ξA = CC(N)C(=O)O

Tests used:
Assay in all cases: NCI-60 cell line screen, 48 h
T-47D breast = test system: T-47D breast
OVCAR-8 ovarian = test system: OVCAR-8 ovarian
UO-31 renal = test system: UO-31 renal
PC-3 prostate = test system: PC-3 prostate
IGROV1 ovarian = test system: IGROV1 ovarian
SNB-75 CNS = test system: SNB-75 CNS
NCI/ADR-RES ovarian = test system: NCI/ADR-RES ovarian
A549 NSCLC = test system: A549 NSCLC
MALME-3M melanoma = test system: MALME-3M melanoma
CAKI-1 renal = test system: CAKI-1 renal
NCI-H226 lung = test system: NCI-H226 lung
LOX IMVI melanoma = test system: LOX IMVI melanoma
OVCAR-4 ovarian = test system: OVCAR-4 ovarian
NCI-H522 lung = test system: NCI-H522 lung
NCI-H23 lung = test system: NCI-H23 lung
SF-295 CNS = test system: SF-295 CNS
TK-10 renal = test system: TK-10 renal
M14 melanoma = test system: M14 melanoma
DU-145 prostate = test system: DU-145 prostate
NCI-H460 lung = test system: NCI-H460 lung
SK-MEL-28 melanoma = test system: SK-MEL-28 melanoma
SK-MEL-5 melanoma = test system: SK-MEL-5 melanoma
A498 renal = test system: A498 renal
OVCAR-5 ovarian = test system: OVCAR-5 ovarian
HCT-116 colon = test system: HCT-116 colon
HOP-92 NSCLC = test system: HOP-92 NSCLC
HCC-2998 colon = test system: HCC-2998 colon
SF-268 CNS = test system: SF-268 CNS
SK-OV-3 ovarian = test system: SK-OV-3 ovarian
MCF7 breast = test system: MCF7 breast
K-562 leukemia = test system: K-562 leukemia
SW-620 colon = test system: SW-620 colon
HL-60(TB) leukemia = test system: HL-60(TB) leukemia
COLO 205 colon = test system: COLO 205 colon
SN12C renal = test system: SN12C renal
RPMI-8226 leukemia = test system: RPMI-8226 leukemia
MDA-MB-435 = test system: MDA-MB-435
UACC-257 melanoma = test system: UACC-257 melanoma
HCT-15 colon = test system: HCT-15 colon
HOP-62 NSCLC = test system: HOP-62 NSCLC
KM12 colon = test system: KM12 colon
SF-539 CNS = test system: SF-539 CNS
U251 CNS = test system: U251 CNS
MOLT-4 leukemia = test system: MOLT-4 leukemia
UACC-62 melanoma = test system: UACC-62 melanoma
EKVX NSCLC = test system: EKVX NSCLC
SK-MEL-2 melanoma = test system: SK-MEL-2 melanoma
ACHN renal = test system: ACHN renal
786-0 renal = test system: 786-0 renal
OVCAR-3 ovarian = test system: OVCAR-3 ovarian
CCRF-CEM leukemia = test system: CCRF-CEM leukemia
SR leukemia = test system: SR leukemia
HT29 colon = test system: HT29 colon
RXF 393 renal = test system: RXF 393 renal
MDA-N = test system: MDA-N
HS 578T breast = test system: HS 578T breast
BT-549 breast = test system: BT-549 breast
SNB-19 CNS = test system: SNB-19 CNS
MDA-MB-231 breast = test system: MDA-MB-231 breast

For `CSC12c3cc(C)n(-c4ccc(I)cc4)c3CC(C)(C)CN1C(=O)C2Oc1ccccc1` (stereo not given), the TGI (T-47D breast) was > 100 µM, the TGI (OVCAR-8 ovarian) was > 100 µM and the TGI (UO-31 renal) was > 100 µM. The TGI (PC-3 prostate) was > 100 µM, the TGI (IGROV1 ovarian) was > 100 µM and the TGI (SNB-75 CNS) was > 100 µM. The TGI (NCI/ADR-RES ovarian) was > 100 µM, the TGI (A549 NSCLC) was > 100 µM and the TGI (MALME-3M melanoma) was > 100 µM. The TGI (CAKI-1 renal) was > 100 µM, the TGI (NCI-H226 lung) was > 100 µM and the TGI (LOX IMVI melanoma) was > 100 µM. The TGI (OVCAR-4 ovarian) was > 100 µM, the TGI (NCI-H522 lung) was > 100 µM and the TGI (NCI-H23 lung) was > 100 µM. The TGI (SF-295 CNS) was > 100 µM, the TGI (TK-10 renal) was > 100 µM and the TGI (M14 melanoma) was > 100 µM. For the same compound, the TGI (DU-145 prostate) was > 100 µM, the TGI (NCI-H460 lung) was > 100 µM and the TGI (SK-MEL-28 melanoma) was > 100 µM. For the same compound, the TGI (SK-MEL-5 melanoma) was > 100 µM, the TGI (A498 renal) was > 100 µM and the TGI (OVCAR-5 ovarian) was > 100 µM. For the same compound, the TGI (HCT-116 colon) was > 100 µM, the TGI (HOP-92 NSCLC) was > 100 µM and the TGI (HCC-2998 colon) was > 100 µM. For the same compound, the TGI (SF-268 CNS) was > 100 µM, the TGI (SK-OV-3 ovarian) was > 100 µM and the TGI (MCF7 breast) was > 100 µM. For the same compound, the TGI (K-562 leukemia) was > 100 µM, the TGI (SW-620 colon) was > 100 µM and the TGI (HL-60(TB) leukemia) was > 100 µM. For the same compound, the TGI (COLO 205 colon) was > 100 µM, the TGI (SN12C renal) was > 100 µM and the TGI (RPMI-8226 leukemia) was > 100 µM. The TGI (MDA-MB-435) was > 100 µM, the TGI (UACC-257 melanoma) was > 100 µM and the TGI (HCT-15 colon) was > 100 µM. The TGI (HOP-62 NSCLC) was > 100 µM, the TGI (KM12 colon) was > 100 µM and the TGI (SF-539 CNS) was > 100 µM. The TGI (U251 CNS) was > 100 µM, the TGI (MOLT-4 leukemia) was > 100 µM and the TGI (UACC-62 melanoma) was > 100 µM. For the same compound, the TGI (EKVX NSCLC) was > 100 µM, the TGI (SK-MEL-2 melanoma) was > 100 µM and the TGI (ACHN renal) was > 100 µM. The TGI (786-0 renal) was > 100 µM, the TGI (OVCAR-3 ovarian) was > 100 µM and the TGI (CCRF-CEM leukemia) was > 100 µM. For the same compound, the TGI (SR leukemia) was > 100 µM, the TGI (HT29 colon) was > 100 µM and the TGI (RXF 393 renal) was > 100 µM. For the same compound, the TGI (MDA-N) was > 100 µM, the TGI (HS 578T breast) was > 100 µM and the TGI (BT-549 breast) was > 100 µM. For the same compound, the TGI (SNB-19 CNS) was > 100 µM and the TGI (MDA-MB-231 breast) was > 100 µM.

With `COc1ccc(C[C@@H](C(=O)N[C@@H](C)C(N)=O)N(C)C(=O)[C@@H]2CCCN2C(=O)[C@H](CC(C)C)NC(=O)C(C)NC(=O)OCc2ccccc2)cc1` (stereo not given in full) (Cbz-[ξA]LP[NMeY](Me)A-NH2) the TGI (T-47D breast) was > 100 µM, the TGI (OVCAR-8 ovarian) was > 100 µM and the TGI (UO-31 renal) was > 100 µM. The TGI (PC-3 prostate) was > 100 µM, the TGI (IGROV1 ovarian) was > 100 µM and the TGI (SNB-75 CNS) was > 100 µM. For the same compound, the TGI (NCI/ADR-RES ovarian) was > 100 µM, the TGI (A549 NSCLC) was > 100 µM and the TGI (MALME-3M melanoma) was > 100 µM. The TGI (CAKI-1 renal) was > 100 µM, the TGI (NCI-H226 lung) was > 100 µM and the TGI (LOX IMVI melanoma) was > 100 µM. For the same compound, the TGI (OVCAR-4 ovarian) was > 100 µM, the TGI (NCI-H522 lung) was > 100 µM and the TGI (NCI-H23 lung) was > 100 µM. For the same compound, the TGI (SF-295 CNS) was > 100 µM, the TGI (TK-10 renal) was > 100 µM and the TGI (M14 melanoma) was > 100 µM. The TGI (DU-145 prostate) was > 100 µM, the TGI (NCI-H460 lung) was > 100 µM and the TGI (SK-MEL-28 melanoma) was > 100 µM. For the same compound, the TGI (SK-MEL-5 melanoma) was > 100 µM, the TGI (A498 renal) was > 100 µM and the TGI (OVCAR-5 ovarian) was > 100 µM. For the same compound, the TGI (HCT-116 colon) was > 100 µM, the TGI (HOP-92 NSCLC) was > 100 µM and the TGI (HCC-2998 colon) was > 100 µM. For the same compound, the TGI (SF-268 CNS) was > 100 µM, the TGI (SK-OV-3 ovarian) was > 100 µM and the TGI (MCF7 breast) was > 100 µM. The TGI (K-562 leukemia) was > 100 µM, the TGI (SW-620 colon) was > 100 µM and the TGI (HL-60(TB) leukemia) was > 100 µM. For the same compound, the TGI (COLO 205 colon) was > 100 µM, the TGI (SN12C renal) was > 100 µM and the TGI (RPMI-8226 leukemia) was > 100 µM. For the same compound, the TGI (MDA-MB-435) was > 100 µM, the TGI (HCT-15 colon) was > 100 µM and the TGI (HOP-62 NSCLC) was > 100 µM. The TGI (KM12 colon) was > 100 µM, the TGI (SF-539 CNS) was > 100 µM and the TGI (U251 CNS) was > 100 µM. For the same compound, the TGI (MOLT-4 leukemia) was > 100 µM, the TGI (UACC-62 melanoma) was > 100 µM and the TGI (EKVX NSCLC) was > 100 µM. The TGI (SK-MEL-2 melanoma) was > 100 µM, the TGI (ACHN renal) was > 100 µM and the TGI (786-0 renal) was > 100 µM. For the same compound, the TGI (OVCAR-3 ovarian) was > 100 µM, the TGI (CCRF-CEM leukemia) was > 100 µM and the TGI (SR leukemia) was > 100 µM. The TGI (HT29 colon) was > 100 µM, the TGI (RXF 393 renal) was > 100 µM and the TGI (MDA-N) was > 100 µM. For the same compound, the TGI (HS 578T breast) was > 100 µM, the TGI (BT-549 breast) was > 100 µM and the TGI (SNB-19 CNS) was > 100 µM. The TGI (MDA-MB-231 breast) was > 100 µM.

`COc1ccc2nc3cccc([N+](=O)[O-])c3c(NCCC(=O)O)c2c1` was tested, and the TGI (T-47D breast) was > 10 µM, the TGI (OVCAR-8 ovarian) was > 10 µM and the TGI (PC-3 prostate) was > 10 µM. The TGI (IGROV1 ovarian) was > 10 µM, the TGI (SNB-75 CNS) was > 10 µM and the TGI (NCI/ADR-RES ovarian) was > 10 µM. The TGI (A549 NSCLC) was > 10 µM, the TGI (MALME-3M melanoma) was > 10 µM and the TGI (CAKI-1 renal) was > 10 µM. The TGI (NCI-H226 lung) was > 10 µM, the TGI (LOX IMVI melanoma) was > 10 µM and the TGI (OVCAR-4 ovarian) was > 10 µM. The TGI (NCI-H522 lung) was > 10 µM, the TGI (NCI-H23 lung) was > 10 µM and the TGI (SF-295 CNS) was > 10 µM. The TGI (TK-10 renal) was > 10 µM, the TGI (M14 melanoma) was > 10 µM and the TGI (DU-145 prostate) was > 10 µM. The TGI (NCI-H460 lung) was > 10 µM, the TGI (SK-MEL-28 melanoma) was > 10 µM and the TGI (SK-MEL-5 melanoma) was > 10 µM. The TGI (A498 renal) was > 10 µM, the TGI (OVCAR-5 ovarian) was > 10 µM and the TGI (HCT-116 colon) was > 10 µM. The TGI (HOP-92 NSCLC) was > 10 µM, the TGI (HCC-2998 colon) was > 10 µM and the TGI (SF-268 CNS) was > 10 µM. The TGI (SK-OV-3 ovarian) was > 10 µM, the TGI (MCF7 breast) was > 10 µM and the TGI (K-562 leukemia) was > 10 µM. For the same compound, the TGI (SW-620 colon) was > 10 µM, the TGI (HL-60(TB) leukemia) was > 10 µM and the TGI (COLO 205 colon) was > 10 µM. The TGI (SN12C renal) was > 10 µM, the TGI (RPMI-8226 leukemia) was > 10 µM and the TGI (MDA-MB-435) was > 10 µM. For the same compound, the TGI (UACC-257 melanoma) was > 10 µM, the TGI (HCT-15 colon) was > 10 µM and the TGI (HOP-62 NSCLC) was > 10 µM. For the same compound, the TGI (KM12 colon) was > 10 µM, the TGI (SF-539 CNS) was > 10 µM and the TGI (U251 CNS) was > 10 µM. For the same compound, the TGI (MOLT-4 leukemia) was > 10 µM, the TGI (UACC-62 melanoma) was > 10 µM and the TGI (EKVX NSCLC) was > 10 µM. For the same compound, the TGI (SK-MEL-2 melanoma) was > 10 µM, the TGI (ACHN renal) was > 10 µM and the TGI (786-0 renal) was > 10 µM. The TGI (OVCAR-3 ovarian) was > 10 µM, the TGI (CCRF-CEM leukemia) was > 10 µM and the TGI (SR leukemia) was > 10 µM. For the same compound, the TGI (HT29 colon) was > 10 µM, the TGI (RXF 393 renal) was > 10 µM and the TGI (MDA-N) was > 10 µM. The TGI (HS 578T breast) was > 10 µM, the TGI (BT-549 breast) was > 10 µM and the TGI (SNB-19 CNS) was > 10 µM. The TGI (MDA-MB-231 breast) was > 10 µM.
